From US6150361A, “Triazineone compounds for treating diseases due to sarcosystis, neospora and toxoplasma” (Bayer Corporation, priority 1998, dated 2000)
Where “and” joins values, the source holds several entries; their conditions need not be identical. Identical values can stand only once.

Experiments:
[1] = test system: EPM-Infected Horses; assay: Treatment of naturally occurring clinical EPM in horses with Ponazuril paste (clinical score); format: in vivo
Method: The compound was formulated into a paste using Ponazuril as a 15% active ingredient (a.i.) as described in EXAMPLE 1. It was administered to horses already diagnosed with EPM once a day for 28 days at a dose rate between 2.5 mg/Kg and 10 mg/Kg.
Naturally occurring clinical cases of EPM were well characterized by signalment and laboratory diagnosis. The diagnosis used for incorporation of EPM-positive horses into this trial was as follows: Confirmed asymmetrical neurological deficit as determined by a standardized neurological examination, to include radiography, indicative of EPM; Positive Western Blot for Sarcocystis neurona IgG; Red Blood Cell count below 500 cells/mL; CSF indices--Total Protein<90, IgG index>0.3. AQ quotient<2.2.
Additional requirements were that the horses were not suffering from diseases other than EPM. Therefore, they had to meet the following criteria: Negative CSF (<1:4) for EHV-1; Normal serum values for Vitamin E (.2.0 μg/mL); Lack of seizure disorders; Lack of behavior disorders.
Diagnosed horses were randomly assigned to groups. Group 1 horses received the paste formulation daily at a dose rate of 5 mg/Kg whereas Group 2 horses received the paste formulation daily at a dose rate of 10 mg/Kg. The treatment dose was based on body weight. The horses were evaluated for a period of 90 days (approximately 60 days after discontinuation of treatment) in order to determine that treatment was indeed effective. The response to treatment was scored using the following system:
1) 0=complete success-clinically normal with a negative CSF; 2) 1=Deficit just detected at a normal gait; 3) 2=Deficit easily detected and exaggerated by backing, turning, swaying, jaw loin pressure and neck extension; 4) 3=Deficit very prominent on walking, Facial turning, loin pressure or neck extension; 5) 4=Stumbling, tripping and falling down spontaneously; 6) 5=Recumbent, unable to rise. An improvement of one (1) unit in the score was considered a significant improvement.

[2] = test system: Sarcocystis falcatula; assay: Microtiter Monolayer Disruption Assay (MMDA), Sarcocystis falcatula; format: cell-based, Sarcocystis falcatula strain SF1; conditions: BT cells
Method: In order to determine the scope of protection provided by Ponazuril, in vitro testing was conducted. The following strains of parasites were evaluated for their sensitivity to this compound: Strain SN3 of Sarcocystis neurona; strain SF1 of Sarcocystis falcatula; strain RH of Toxoplasma gondii; and the NC-1 strain of Neospora caninum. Ponazuril was tested at 2 concentrations (1 μg/mL and 10 μg/mL).
(§1) Bovine turbinate (BT) cells were used for all in vitro studies. Cells were grown to confluency in 25 cm^2 flasks in RMPI 1640 media supplemented with 10% v/v fetal bovine serum (FBS), 100 Units penicillin (G/mL), […] streptomycin/mL and 5×10^-2 mM 2-mercpatoethanol. After cell confluence was obtained, cells were maintained in the same media with reduced FBS (2% v/v). Cell cultures were incubated at 37 C. in a humidified atmosphere containing 5% carbon dioxide and 95% air.
For growth of parasites, BT cell monolayers were infected with parasites and examined with an inverted microscope for the development of lesions (cytopathic effect, "CPE") or the presence of many extracellular merozoites. Once lesions were observed, or many extracellular parasites were present, the monolayer was scraped with the tip of a 5 mL pipette and 1 to 3 drops of the merozoite-containing fluid was transferred to two flasks of fresh BT cells. Merozoites of S. neurona and S. falcatula were passaged in this manner every 5 to 10 days while the tachyzoites of T. gondii and N. caninum were passaged every 3 to 4 days.
The assay used to determine the effectiveness of Ponazuril was the Microtiter Monolayer Disruption Assay (MMDA). This assay was used to determine if the parasites or compound were toxic for BT cells. Flat bottomed 96-well microtiter plates were inoculated with BT cells and the resulting monolayers were used to determine the effects of Toltrazuril and Ponazuril on merozoite production as measured by CPE (plaque formation). Monolayers were inoculated with parasites (S. neurona or S. falcatula at a count of 50,000/well, T. gondii at a level of 10,000/well, and N. caninum at 20,000/well. All wells were inoculated with the test compound 2 hours after infection. Untreated and […] monolayer wells served as parasite controls and uninfected agent treated BT cells served as toxicity controls. Each treatment was examined in replicates of 6. Each well was visually monitored daily and the assay was stopped when 90-100% of the untreated merozoite infected cells had lysed (90-100% CPE). All wells of the plates were rinsed in Phosphate Buffered Saline (PBS) and fixed in 100% methanol for 5 minutes after which they were stained in crystal violet solution. […]

[3] = test system: Bovine turbinate (BT) cells; format: cell-based; conditions: uninfected BT cells
Method: as §1
The assay used to determine the effectiveness of Ponazuril was the Microtiter Monolayer Disruption Assay (MMDA). This assay was used to determine if the parasites or compound were toxic for BT cells. Flat bottomed 96-well microtiter plates were inoculated with BT cells and the resulting monolayers were used to determine the effects of Toltrazuril and Ponazuril on merozoite production as measured by CPE (plaque formation). […]

[4] = Drug levels in serum after repeated doses of Toltrazuril in horses; format: in vivo; design: unit not given here; conditions: for AVG drug level in serum, 48 Hrs / AVG drug level in serum, 96 Hrs / AVG drug level in serum, 240 Hrs: group average; for Drug level in serum, 48 Hrs / Drug level in serum, 96 Hrs / Drug level in serum, 240 Hrs: individual horse
Method: This experiment was conducted in order to determine whether triazineones such as Toltrazuril can pass the blood-brain barrier. Normal horses were divided into three groups of three horses per group. Group 1 horses received Toltrazuril administered orally as a 5% suspension at a dose level of 2.5 mg/Kg. Group 2 horses received Toltrazuril administered orally as a 5% suspension at a dose level of 5.0 mg/Kg. Group 3 horses received Toltrazuril administered orally as a 5% suspension at a dose level of 7.5 mg/Kg. The dosing was repeated daily for 10 days. Blood samples were drawn at 48, 96 and 240 hours and the concentration of Toltrazuril, Toltrazuril sulfoxide and Ponazuril in the serum was measured. Ten days after the start of the treatment (Day 10), a sample of cerebral spinal fluid was removed from each horse and the concentrations of Toltrazuril, Toltrazuril Sulfoxide and Ponazuril were again measured in these samples. The concentrations of Toltrazuril, Toltrazuril Sulfoxide and Ponazuril in the serum and cerebral spinal fluid are reported in TABLES 5a and 5b.

[5] = individual horse, 5 mg/Kg paste daily for 28 days, score 0=complete success to 5=recumbent, listed as Toltrazuril Sulfone
[6] = individual horse, 10 mg/Kg paste daily for 28 days, score 0=complete success to 5=recumbent, listed as Toltrazuril Sulfone
[7] = sum of scores of group, 5 mg/Kg daily for 28 days
[8] = sum of scores of group, 10 mg/Kg daily for 28 days
[9] = Toltrazuril 2.5 mg/Kg oral daily for 10 days
[10] = Toltrazuril 5.0 mg/Kg oral daily for 10 days
[11] = Toltrazuril 7.5 mg/Kg oral daily for 10 days

## Cc1cc(-n2c(=O)[nH]c(=O)n(C)c2=O)ccc1Oc1ccc(S(=O)(=O)C(F)(F)F)cc1 [Ponazuril]
[1]; 5 mg/Kg versus 10 mg/Kg
  improvement in total scores, Group 1 versus Group 2: approximately equivalent
[1]; 10 mg/Kg, treated for 28 days, improvement of 1 unit significant
  horses showing a significant improvement in clinical score by day 90: 100%
[1]; either 5 mg/Kg or 10 mg/Kg
  effectiveness for the active treatment of EPM in horses: effective
[1]; [5]
  clinical score, Day 28, 5 mg/Kg Dose: 1 and 2 and 0 and 3
  clinical score, Day 90, 5 mg/Kg Dose: 2 and 1 and 0 and 3
[1]; [6]
  clinical score, Day 28, 10 mg/Kg Dose: 2 and 1 and 0
  clinical score, Day 90, 10 mg/Kg Dose: 1 and 0
[1]; individual horse, before treatment, 5 mg/Kg paste daily for 28 days, score 0=complete success to 5=recumbent, listed as Toltrazuril Sulfone
  clinical score, Day 0, 5 mg/Kg Dose: 2 and 3
[1]; individual horse, before treatment, 10 mg/Kg paste daily for 28 days, score 0=complete success to 5=recumbent, listed as Toltrazuril Sulfone
  clinical score, Day 0, 10 mg/Kg Dose: 4 and 3 and 2
[1]; [7]
  TOTAL clinical score, Day 28, 5 mg/Kg Dose: 13
  TOTAL clinical score, Day 90, 5 mg/Kg Dose: 6
[1]; [8]
  TOTAL clinical score, Day 28, 10 mg/Kg Dose: 15
  TOTAL clinical score, Day 90, 10 mg/Kg Dose: 4
[1]; sum of scores of group, before treatment, 5 mg/Kg
  TOTAL clinical score, Day 0, 5 mg/Kg Dose: 17
[1]; sum of scores of group, before treatment, 10 mg/Kg
  TOTAL clinical score, Day 0, 10 mg/Kg Dose: 19
[2]; 0.1 μg/mL, read-out: Percent Inhibition of Cell Destruction, 0.1 μg/mL
  inhibition at 0.1 µg/mL: 61%
[2]; 1 μg/mL, read-out: Percent Inhibition of Cell Destruction, 1 μg/mL
  inhibition at 1 µg/mL: 100%
[2]; 5.0 μg/mL, read-out: Percent Inhibition of Cell Destruction, 5.0 μg/mL
  inhibition at 5 µg/mL: 100%
[2]; 10 μg/mL, read-out: Percent Inhibition of Cell Destruction, 10 μg/mL
  inhibition at 10 µg/mL: 100%
[3]
  toxicity to the BT cells: not toxic
[4]; [9]
  AVG drug level in serum, 48 Hrs: 1.41
  AVG drug level in serum, 96 Hrs: 1.76
  AVG drug level in serum, 240 Hrs: 3.00
  Drug level in serum, 48 Hrs: 0.29 and 0.24 and 3.70
  Drug level in serum, 96 Hrs: 0.99 and 1.15 and 3.13
  Drug level in serum, 240 Hrs: 2.61 and 2.36 and 4.04
[4]; [10]
  AVG drug level in serum, 48 Hrs: 0.53
  AVG drug level in serum, 96 Hrs: 2.26
  AVG drug level in serum, 240 Hrs: 5.02
  Drug level in serum, 48 Hrs: 0.48 and 0.63
  Drug level in serum, 96 Hrs: 2.09 and 2.03 and 2.66
  Drug level in serum, 240 Hrs: 5.44 and 2.03 and 5.61
[4]; [11]
  AVG drug level in serum, 48 Hrs: 2.55
  AVG drug level in serum, 96 Hrs: 2.89
  AVG drug level in serum, 240 Hrs: 6.58
  Drug level in serum, 48 Hrs: 6.35 and 0.78 and 0.52
  Drug level in serum, 96 Hrs: 2.69 and 2.89 and 3.09
  Drug level in serum, 240 Hrs: 6.31 and 6.37 and 7.06
